In BindingDB's records for doi:10.1016/0006-2952(92)90616-q (National Institutes of Diabetes and Digestive and Kidney …, 1992) one finds Ki data, which are given here for seven compounds.

Each structure is given as a SMILES string.

Chain of Adenosine receptor A2a (P30543 whole entry): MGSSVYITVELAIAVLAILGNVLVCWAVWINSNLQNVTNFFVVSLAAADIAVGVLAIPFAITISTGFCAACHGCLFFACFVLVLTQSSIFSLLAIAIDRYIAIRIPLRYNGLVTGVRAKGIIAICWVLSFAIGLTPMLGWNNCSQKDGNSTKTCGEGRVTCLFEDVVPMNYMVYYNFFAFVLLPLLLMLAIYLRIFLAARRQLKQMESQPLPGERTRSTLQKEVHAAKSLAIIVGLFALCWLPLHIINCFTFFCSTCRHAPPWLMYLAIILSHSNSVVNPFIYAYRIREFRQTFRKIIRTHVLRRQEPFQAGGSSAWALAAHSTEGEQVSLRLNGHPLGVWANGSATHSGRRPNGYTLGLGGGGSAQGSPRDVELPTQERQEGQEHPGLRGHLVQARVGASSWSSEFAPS

One assay addresses Adenosine receptor A2a (Rattus norvegicus, UniProt P30543).
Consider `OC[C@H]1O[C@@H](n2cnc3c(NC4CCCC4)ncnc32)[C@H](O)[C@@H]1O`, for which the Ki was 510 nM.
On to `CSC[C@H]1O[C@@H](n2cnc3c(NC4CCCC4)nc(F)nc32)[C@H](O)[C@@H]1O` [2-Fluoro-5'-Methylthio Adenosine], for which the affinity, expressed as Ki, was 950 nM.
The compound `Nc1nc(F)nc2c1ncn2[C@@H]1O[C@H](CO)[C@@H](O)[C@H]1O` [2-FluoroAdo] gave a Ki of 28 nM.
On the same count and under the same terms, next, `Nc1ncnc2c1ncn2[C@@H]1O[C@H](Cl)[C@@H](O)[C@H]1O` [5'-Chloro Adenosine]: 140 nM; `CSC[C@H]1O[C@@H](n2cnc3c(NC4CCCC4)ncnc32)[C@H](O)[C@@H]1O` [5'-Methylthio Adenosine]: 1180 nM; `CCNC(=O)C1OC(n2cnc3c(NC4CCCCC4)ncnc32)C(O)C1O` (stereo not drawn) [N6-CyclohexylNECA]: 170 nM.
The same measure, in the same setting: next, `O[C@@H]1[C@H](O)[C@@H](Cl)O[C@H]1n1cnc2c(NC3CCCC3)ncnc21` [N6-Cyclopentyl-5'chloro Adenosine]: 1360 nM.

A further assay addresses T1, Adenosine receptor A1 (Rattus norvegicus, UniProt P25099).
T1 sequence (P25099 whole entry): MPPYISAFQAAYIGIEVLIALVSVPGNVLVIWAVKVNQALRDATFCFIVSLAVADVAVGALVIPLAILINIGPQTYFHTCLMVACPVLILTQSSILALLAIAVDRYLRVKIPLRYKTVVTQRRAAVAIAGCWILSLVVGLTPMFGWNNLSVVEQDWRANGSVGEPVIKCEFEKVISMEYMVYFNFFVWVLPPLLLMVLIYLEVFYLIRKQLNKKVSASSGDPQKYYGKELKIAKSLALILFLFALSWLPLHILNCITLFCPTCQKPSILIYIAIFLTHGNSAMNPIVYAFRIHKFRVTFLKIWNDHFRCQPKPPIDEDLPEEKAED
Take `CSC[C@H]1O[C@@H](n2cnc3c(NC4CCCC4)nc(F)nc32)[C@H](O)[C@@H]1O` [2-Fluoro-5'-Methylthio Adenosine]: the Ki was determined as 84 nM.
For the compound `Nc1nc(F)nc2c1ncn2[C@@H]1O[C@H](CO)[C@@H](O)[C@H]1O` [2-FluoroAdo], the Ki was 5.9 nM. Compared with the last compound, the Ki is about 14-fold lower.
For the compound `Nc1ncnc2c1ncn2[C@@H]1O[C@H](Cl)[C@@H](O)[C@H]1O` [5'-Chloro Adenosine], the Ki stood at 20 nM.
The compound `CSC[C@H]1O[C@@H](n2cnc3c(NC4CCCC4)ncnc32)[C@H](O)[C@@H]1O` [5'-Methylthio Adenosine] displayed a Ki of 243 nM.
`CCNC(=O)C1OC(n2cnc3c(NC4CCCCC4)ncnc32)C(O)C1O` (stereo not drawn) [N6-CyclohexylNECA] registered a Ki of 0.43 nM.
Consider `O[C@@H]1[C@H](O)[C@@H](Cl)O[C@H]1n1cnc2c(NC3CCCC3)ncnc21` [N6-Cyclopentyl-5'chloro Adenosine], for which the Ki was found to be 0.63 nM.
